Consider three compounds from the NIST ThermoML archive (doi:10.1016/j.jct.2018.02.001).

± gives the expanded uncertainty stated by the source.

By mass density is commonly meant the mass of a sample divided by its volume.

For this series the following is noted: 101.33 kPa, Liquid, Vibrating tube method.

Take `CCCCCC[n+]1ccn(CC)c1.[Br-]` [1-ethyl-3-hexyl-1H-imidazolium bromide]: the mass density runs as follows: (293.15 K) 1197.06 ± 11 kg/m3; (298.15 K) 1193.59 ± 11 kg/m3; (303.15 K) 1190.1 ± 11 kg/m3; (308.15 K) 1186.58 ± 11 kg/m3; (313.15 K) 1183.02 ± 11 kg/m3; (318.15 K) 1179.46 ± 11 kg/m3. Further, the mass density (323.15 K) is reported as 1175.88 ± 11 kg/m3.
For the compound `CCCCCCCC[n+]1ccn(CC)c1.[Br-]` [1-ethyl-3-octyl-1H-imidazolium bromide], the mass density is listed as 1148.89 ± 1.9 kg/m3 (293.15 K); 1145.43 ± 1.9 kg/m3 (298.15 K); 1141.74 ± 1.8 kg/m3 (303.15 K); 1138.13 ± 1.8 kg/m3 (308.15 K); 1134.69 ± 1.8 kg/m3 (313.15 K); 1131.07 ± 1.8 kg/m3 (318.15 K). In addition, for the setting “323.15 K”, the mass density came to 1127.5 ± 1.8 kg/m3.
As to `CCCCCCCCCCCC[n+]1ccn(CC)c1.[Br-]` [3-dodecyl-1-ethyl-1H-imidazolium bromide], the mass density is, setting by setting: (293.15 K) 1084.31 ± 1.5 kg/m3; (298.15 K) 1080.97 ± 1.5 kg/m3; (303.15 K) 1077.53 ± 1.5 kg/m3; (308.15 K) 1074.03 ± 1.5 kg/m3; (313.15 K) 1070.48 ± 1.5 kg/m3; (318.15 K) 1066.96 ± 1.5 kg/m3. The mass density (323.15 K) is 1063.43 ± 1.5 kg/m3.
